Patent US11896685B2, “Core-shell network structure comprising biopolymer and composition comprising same” (AMOREPACIFIC CORPORATION, priority 2018, dated 2024)

System: human keratinocytes (HaCaT)
Experiment: Scratch wound healing (skin regeneration) test, time-lapse microscopy
Type: cell-based
Conditions: after 48 hours, scratched HaCaT
Experimental: First, human keratinocytes (HaCaT) purchased from CLS (Cat No. 300493) were seeded onto a 24-well cell culture plate at a concentration of 2.0×10^5 cells/600 μL, in DMEM (Lonza, #12-604F) containing 10% fetal bovine serum (GIBCO, #16000-044) and antibiotics (Lonza, #17-602E). After culturing in a 5% CO2 incubator at 37° C. for 24 hours and replacing the medium with DMEM containing 1% fetal bovine serum, the cells were cultured further for 16 hours. After the cells were filled on the culture plate, the cells were damaged by applying a linear scratch using a scratcher (SPL, #SPL201925) and then washed twice. Core-shell network solutions comprising 0.005 wt %, 0.25 wt %, 0.5 wt % or 1 wt % of the core-shell network structure based on the total weight of the solution, were prepared in the same manner as in Example 3 (Examples 4-7). […]
The negative control group, the positive control group and the groups treated with the core-shell network structure at different concentrations were placed on a time-lapse microscope (JuLI™ Stage, NanoEnT) stage in a CO2 incubator and each well was imaged for 48 hours with 1-hour intervals. Then, wound healing area (%) was determined from the acquired images using a software analysis tool (Wound Healing tool).

Q: With madecassoside as the substance, how does the “wound healing area as compared to the negative control group” value read?
A: 1.37 times

Q: What about the wound healing area (negative control 30.06%) of the same substance?
A: 41.25%
